In patent US8012987B2, “Indolo[2,1-b] quinazole-6,12-dione antimalarial compounds and methods of treating malaria therewith” (The United States of America as represented by the …, priority 1998, dated 2011):
≈ marks a conversion by molar mass, not a printed value. Where two headings read alike, the source gives them in different places.

Tests used:
Format in all cases: cell-based
[1] = system: Plasmodium falciparum clone CDC Sierra Leone I (D-6); test: In vitro inhibition of [3H]hypoxanthine uptake, P. falciparum D-6 clone; conditions: Plasmodium falciparum, read-out: IC50 (D-6)
Protocol: (§1) The in vitro assays were conducted by using a modification of the semiautomated microdilution technique of Desjardins et al.^11 and Chulay et al.^12 Two strains of Plasmodium falciparum clones, from CDC Indochina III (W-2), CDC Sierra Leone I (D-6). […] These solutions were subsequently serially diluted 2-fold with a Biomek 1000® (Beckman, Fullerton, Calif.) over 11 different concentrations. The parasites were exposed to serial dilutions of each compound for 48 h and incubated at 37° C. with 5% O2, 5% CO2, and 90% N2 prior to the addition of [^3H]hypoxanthine. […] Uptake of [^3H]hypoxanthine was measured with a Packard Topcount scintillation counter. […] The values without parentheses indicate culture in blood serum which more closely resemble conditions in a living animal.
(§2) The numbers associated with both W2 and D6 refer to IC50 values and the units are ng/ml.

[2] = system: Plasmodium falciparum clone CDC Indochina III (W-2); test: In vitro inhibition of [3H]hypoxanthine uptake, P. falciparum W-2 clone; conditions: Plasmodium falciparum, read-out: IC50 (W-2)
Protocol: as §1, §2

[3] = system: Plasmodium falciparum clone Thai TM90C2B; test: In vitro inhibition of [3H]hypoxanthine uptake, P. falciparum TM90C2B; conditions: Plasmodium falciparum, TM90C2B, values without parentheses: blood serum (footnote: blood plasma) replacing Albumax
Protocol: The in vitro assays were conducted by using a modification of the semiautomated microdilution technique of Desjardins et al.^11 and Chulay et al.^12 Two strains of Plasmodium falciparum clones, from CDC Indochina III (W-2), CDC Sierra Leone I (D-6). […] They were derived by direct visualization and micromanipulation from patient isolates.^13 Test compounds were initially dissolved in DMSO and diluted 400-fold in RPMI 1640 culture medium supplemented with 25 mM Hepes, 32 mM HaHCO3, and 10% Albumax I® (GIBCO BRL, Grand Island, N.Y.). These solutions were subsequently serially diluted 2-fold with a Biomek 1000® (Beckman, Fullerton, Calif.) over 11 different concentrations. The parasites were exposed to serial dilutions of each compound for 48 h and incubated at 37° C. with 5% O2, 5% CO2, and 90% N2 prior to the addition of [^3H]hypoxanthine. After a further incubation of 18 h, parasite DNA was harvested from each microtiter well using Packard Filtermate 196 Harvester® (Meriden, Conn.) onto glass filters. Uptake of [^3H]hypoxanthine was measured with a Packard Topcount scintillation counter. […] This procedure was repeated with the test compounds initially dissolved in DMSO and diluted 400-fold in RPMI 1640 culture medium supplemented with 25 mM Hepes, 32 mM HaHCO3, and with blood serum replacing the 10% Albumax I® (see Table 1, figures without parentheses). The values without parentheses indicate culture in blood serum which more closely resemble conditions in a living animal.
Four strains of Plasmodium falciparum clones, from CDC Indochina III (W-2), CDC Sierra Leone I (D-6), Thai WR75-TM9, and Thai TM90C2B were utilized in susceptibility testing and the IC50 results appear in Table 1.

[4] = values in parentheses: culture medium with 10% Albumax I
[5] = values without parentheses: blood serum (footnote: blood plasma) replacing Albumax

IC50 [1, 4] | IC50 [2, 4] | IC50 [1, 5] | IC50 [3] | IC50 [2, 5] | Compound
0.813 µg/mL (≈ 2.23 µM) | 0.513 µg/mL (≈ 1.41 µM) |  |  |  | CN1CCN(c2cc3c(cc2F)C(=O)c2nc4ccccc4c(=O)n2-3)CC1 [Example 18]
1.05 µg/mL (≈ 2.76 µM) | 0.734 µg/mL (≈ 1.92 µM) |  |  |  | CN1CCN(c2cc3c(cc2F)C(=O)c2nc4cc(F)ccc4c(=O)n2-3)CC1 [Example 20]
0.278 µg/mL (≈ 0.979 µM) | 0.263 µg/mL (≈ 0.927 µM) |  |  |  | O=C1c2ccc(Cl)cc2-n2c1nc1ncccc1c2=O [Example 22]
0.00397 µg/mL (≈ 0.0106 µM) | 0.00167 µg/mL (≈ 0.00445 µM) |  |  |  | O=C1c2cc(I)ccc2-n2c1nc1ncccc1c2=O [Example 23]
1.84 µg/mL (≈ 4.42 µM) | 1.99 µg/mL (≈ 4.78 µM) |  |  |  | Cc1ccc(S(=O)(=O)N/N=C2/c3ccccc3-n3c2nc2ccccc2c3=O)cc1 [Example 25]
0.589 µg/mL (≈ 1.32 µM) | 0.609 µg/mL (≈ 1.37 µM) |  |  |  | CCOC(=O)c1ccc2c(c1)C(=O)c1nc3ccc(I)cc3c(=O)n1-2 [Example 26]
0.149 µg/mL (≈ 0.281 µM) | 0.131 µg/mL (≈ 0.245 µM) |  |  |  | O=C1c2cc(I)ccc2-n2c1nc1c(Br)cc(Br)cc1c2=O [Example 29]
0.5 µg/mL (≈ 2 µM) | 0.354 µg/mL (≈ 1.42 µM) |  |  |  | O=C1c2ccccc2-n2c1nc1nccnc1c2=O [Example 30]
0.161 µg/mL (≈ 0.279 µM) | 0.134 µg/mL (≈ 0.233 µM) |  |  |  | CC(C)(C)OC(=O)N1CCN(c2cc3nc4n(c(=O)c3cc2F)-c2ccc(I)cc2C4=O)CC1 [Example 31]
3.85 µg/mL (≈ 9.43 µM) | 2.59 µg/mL (≈ 6.34 µM) |  |  |  | O=C1c2cc(I)ccc2-n2c1nc1c(O)nc(O)nc1c2=O [Example 32]
0.0671 µg/mL (≈ 0.158 µM) | 0.0796 µg/mL (≈ 0.188 µM) |  |  |  | O=C1c2ccccc2-n2c1nc1c(Br)cc(Br)c(F)c1c2=O [Example 33]
0.588 µg/mL (≈ 0.996 µM) | 0.601 µg/mL (≈ 1.02 µM) |  |  |  | CC1CN(c2cc3nc4n(c(=O)c3cc2F)-c2ccc(I)cc2C4=O)CCN1C(=O)OC(C)(C)C (stereo not shown) [Example 34]
0.103 µg/mL (≈ 0.211 µM) | 0.134 µg/mL (≈ 0.273 µM) |  |  |  | CC1CN(c2cc3nc4n(c(=O)c3cc2F)-c2ccc(I)cc2C4=O)CCN1 (stereo not shown) [Example 35]
4.2 µg/mL (≈ 11.6 µM) | 4.82 µg/mL (≈ 13.3 µM) |  |  |  | CC(C)(C)OC(=O)N/N=C1/c2ccccc2-n2c1nc1ccccc1c2=O [Example 36]
3.78 µg/mL (≈ 12.4 µM) | 3.48 µg/mL (≈ 11.4 µM) |  |  |  | NC(=O)N/N=C1/c2ccccc2-n2c1nc1ccccc1c2=O [Example 37]
0.242 µg/mL (≈ 0.549 µM) | 0.203 µg/mL (≈ 0.461 µM) |  |  |  | O=C1c2ccccc2-n2c1nc1c(Br)cc(Br)c(Cl)c1c2=O [Example 38]

Further lines, the molecule ahead of its results:

Compound | IC50 [1, 4] | IC50 [2, 4] | IC50 [1, 5] | IC50 [3] | IC50 [2, 5]
O=C1c2ccccc2-n2c1nc1ccccc1c2=O [Example 1] | 0.069 µg/mL (≈ 0.278 µM) | 0.069 µg/mL (≈ 0.278 µM) |  |  | 
O=c1c2ccccc2nc2sc3ccccc3n12 [Example 2] | 12.5 µg/mL (≈ 49.5 µM) | 15.6 µg/mL (≈ 61.9 µM) |  |  | 
O=c1c2ccccc2nc2oc3ccccc3n12 [Example 3] | > 50 µg/mL | > 50 µg/mL |  |  | 
O=C1c2cc(F)ccc2N2C(=O)c3ccccc3NC12 (stereo not shown) [Example 4] | 0.00407 µg/mL (≈ 0.0152 µM) | 0.00233 µg/mL (≈ 0.00869 µM) | 0.0189 µg/mL (≈ 0.0704 µM) | 0.0298 µg/mL (≈ 0.111 µM) | 0.0153 µg/mL (≈ 0.0572 µM)
Cc1ccc2nc3n(c(=O)c2c1)-c1ccccc1C3=O [Example 5] | 0.313 µg/mL (≈ 1.19 µM) | 0.264 µg/mL (≈ 1.01 µM) |  |  | 
Cc1cccc2c(=O)n3c(nc12)C(=O)c1ccccc1-3 [Example 6] | 0.527 µg/mL (≈ 2.01 µM) | 0.503 µg/mL (≈ 1.92 µM) |  |  | 
O=C1c2ccccc2-n2c1nc1ccc(Br)cc1c2=O [Example 7] | 0.577 µg/mL (≈ 1.76 µM) | 0.513 µg/mL (≈ 1.57 µM) |  |  | 
Nc1ccc2nc3n(c(=O)c2c1)-c1ccc(F)cc1C3=O [Example 8] | 0.062 µg/mL (≈ 0.22 µM) | 0.062 µg/mL (≈ 0.22 µM) |  |  | 
O=C1c2c(Cl)cccc2-n2c1nc1ccccc1c2=O [Example 9] | 0.471 µg/mL (≈ 1.67 µM) | 0.403 µg/mL (≈ 1.43 µM) |  |  | 
Cc1cc(C)c2nc3n(c(=O)c2c1)-c1ccc(F)cc1C3=O [Example 10] | 0.138 µg/mL (≈ 0.469 µM) | 0.131 µg/mL (≈ 0.445 µM) |  |  | 
Cc1cccc2c(=O)n3c(nc12)C(=O)c1cc(F)ccc1-3 [Example 14] | 0.0102 µg/mL (≈ 0.0363 µM) | 0.00576 µg/mL (≈ 0.0206 µM) |  |  | 
CN1CCN(c2ccc3c(=O)n4c(nc3c2)C(=O)c2cc(F)ccc2-4)CC1 [Example 15] | 0.126 µg/mL (≈ 0.345 µM) | 0.082 µg/mL (≈ 0.225 µM) |  |  | 
CN1CCN(c2ccc3c(c2)-n2c(nc4ccccc4c2=O)C3=O)CC1 [Example 16] | 2.16 µg/mL (≈ 6.24 µM) | 1.01 µg/mL (≈ 2.93 µM) |  |  | 
